Biological target: T1, caspase 3 (Homo sapiens, UniProt P42574)
T1 construct: His tag (C); made in house; host or cells: E. coli
T1 sequence (P42574 29-175 limits assumed): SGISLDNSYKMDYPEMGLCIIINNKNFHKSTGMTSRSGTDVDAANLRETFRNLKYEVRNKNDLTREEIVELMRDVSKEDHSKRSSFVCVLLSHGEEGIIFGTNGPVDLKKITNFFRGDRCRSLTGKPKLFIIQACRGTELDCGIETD
T1 sequence (P42574 176-277 limits assumed): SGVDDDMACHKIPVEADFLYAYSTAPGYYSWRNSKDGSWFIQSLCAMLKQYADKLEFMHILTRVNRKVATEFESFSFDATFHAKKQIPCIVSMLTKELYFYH
Assay: Determination of probe IC50: caspase inhibition assay, cleavage of fluorogenic substrate Ac-DEVD-AFC
Format: biochemical
Details: substrate Ac-DEVD-AFC 25 μM; caspase added last; cleavage monitored 90 minutes, ex 400 nm / em 505 nm
Protocol: This standard pharmacological test procedure to assess the inhibition of recombinant caspase 3 activity of selected compounds was adapted from Thornbery, N., J. Biol. Chem. 1997 272(29) 17907-17911 and Stennicke, H. R. et al., J. Biol. Chem. 1997 272(41) 25719-25723. The procedure used and results obtained are briefly described below.
Caspase 3 was assayed at 23° C. (room temp) in 96-well plates using the internally quenched tetrapeptide substrate N-acetyl-aspartyl-glutamyl-valyl-aspartate-7-amino-4-trifluoromethyl coumarin (Ac-DEVD-AFC purchased from Biomol). The assays are conducted at pH 7.2 in a buffered system containing 20 mM PIPES, 100 mM NaCl, 1 mM EDTA, 0.1% CHAPS, 10% sucrose and 5 mM L-cysteine. The final concentration of the substrate is 25 μM. Enzymic cleavage between the aspartate and the AFC fluorophore liberates 7-amino-4-trifluoromethyl coumarin which is detected using an excitation wavelength of 400 nm and an emission wavelength of 505 nm in a SpectraMax GeminiXS plate reader operated at room temperature. A steady state rate of substrate cleavage is obtained for analysis. […]
The substrate Ac-DEVD-AFC (25 μM) was added to varying inhibitor (probe) concentrations ranging from 20 μM to 2 nM. […] The cleavage of the substrate by the enzyme (caspase) was monitored continuously for 90 minutes by exciting the substrate at 400 nm and monitoring the fluorescence at emission at 505 nm. […]

Row | IC50 | Structure (SMILES)
1 | 15 nM | CN1C(=O)C(=O)c2cc(S(=O)(=O)N3CCC[C@H]3CNC(=O)CCCCCNC(=O)c3ccc(-c4c5ccc(=O)cc-5oc5cc(O)ccc45)c(C(=O)O)c3)ccc21 [Example 2, 2-(6-Hydroxy-3-oxo-3H-xanthen-9-yl)-5-[({6-[({(2S)-1-[(1-methyl-2,3-dioxo-2,3-dihydro-1H-indol-5-yl)sulfonyl]pyrrolidin-2-yl}methyl)amino]-6-oxohexyl}amino)carbonyl]benzoic acid]
2 | 10 nM | CN1C(=O)C(=O)c2cc(S(=O)(=O)N3CCC[C@H]3CNC(=O)c3ccc(-c4c5ccc(=O)cc-5oc5cc(O)ccc45)c(C(=O)O)c3)ccc21 [Example 1, 2-(6-Hydroxy-3-oxo-3H-xanthen-9-yl)-5-{[({(2S)-1-[(1-methyl-2,3-dioxo-2,3-dihydro-1H-indol-5-yl)sulfonyl]pyrrolidin-2-yl}methyl)amino]carbonyl}benzoic acid]

Reference: patent US20070065898A1, “Fluorescence polarization assays for binding of caspase inhibitors and probes therefor” (Wyeth, priority 2005, published 2007)
